Source: article PMC11602115 (Journal of Medicinal Chemistry, 2017)
pEC50, pKi: −log10 of the molar value. Like-named read-outs stand apart in the source and are kept apart here.

What was measured:
IP = IP (Homo sapiens, UniProt P43119); test: HTRF cAMP assay, recombinant human IP receptor stably expressed in CHO-K1 cells; format: cell-based; set-up: expressed in transfected cells
EP2 = EP2 (Homo sapiens, UniProt P43116); test: cAMP HTRF agonist assay, EP2; format: cell-based; conditions: for agonist activity at EP2: HTRF cAMP functional assay
Excerpt: Table Sup2: Data with some comparator compounds in functional assays. […]

Rat PK (iv and oral) = format: in vivo; conditions: for AUC(0-inf) / bioavailability: Sprague-Dawley; for AUC(0-inf): after oral administration 10 mg/kg (5m 10.5); for bioavailability: po, 10 mg/kg; for unbound Cmax plasma concentration: single oral dose 30 mg/kg, based on 1% free fraction of the measured Cmax
EP3v6 = target: T1, EP3v6 (Homo sapiens, UniProt P43115); test: Radioligand binding, EP3v6 ([3H]-PGE2); set-up: purchased MDS Pharma (Taiwan) and CEREP (France), contract assays; conditions: for pKi: cloned human receptor
T1 sequence (P43115 1-374 isoform P43115-4): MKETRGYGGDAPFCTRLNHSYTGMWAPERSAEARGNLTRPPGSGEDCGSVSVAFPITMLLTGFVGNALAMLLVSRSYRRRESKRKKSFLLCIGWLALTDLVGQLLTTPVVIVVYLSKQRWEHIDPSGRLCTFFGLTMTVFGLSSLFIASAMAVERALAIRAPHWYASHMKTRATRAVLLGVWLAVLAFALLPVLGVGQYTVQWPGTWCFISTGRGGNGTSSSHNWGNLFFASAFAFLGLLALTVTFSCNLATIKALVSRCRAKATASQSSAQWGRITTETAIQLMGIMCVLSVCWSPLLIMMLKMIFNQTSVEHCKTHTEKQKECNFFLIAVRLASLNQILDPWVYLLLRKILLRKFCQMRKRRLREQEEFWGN
Protocol: Additional (non-IP) receptor binding assays were carried out by MDS Pharma (Taiwan) and CEREP (France).

rat IP = rat IP (Rattus norvegicus, UniProt P43253); test: Radioligand binding, rat IP ([3H]-iloprost); set-up: expressed in transfected cells; host or cells: CHO-K1 (crude membranes)
Protocol: CHO-K1 cells expressing recombinant IP receptors were harvested, washed with ice-cold phosphate buffered saline, pH 7.4 (PBS), and then centrifuged at 48 000g for 20 min at 4 °C. The resulting cell pellet was then resuspended in ice-cold PBS containing 20 mM HEPES, pH 7.4, and 0.1 mM EDTA, homogenized on ice using a Brinkman Polytron, and centrifuged (48 000g for 20 min at 4 °C). This resuspension and centrifugation process was repeated one further time. Crude membrane pellets were stored at −80 °C until used for radioligand binding assays.
Assay incubations were terminated by rapid filtration through PerkinElmer GF/C filtration plates pretreated with 0.3% PEI, under vacuum pressure using a 96-well Packard filtration apparatus, followed by multiple washes with ice-cold wash buffer (PBS containing 20 mM HEPES and 0.1 mM EDTA, pH 7.4). Plates were then dried at 45 °C for a minimum of 2 h. Finally, 25 μL of BetaScint scintillation cocktail was added to each well and plates were counted in a Packard TopCount scintillation counter. In each competition study, test compounds were dosed at 10 concentrations with triplicate determinations at each test concentration. A reference compound, typically iloprost, was included in every runset for quality control purposes.

EP1 = target: T2, EP1 (Homo sapiens, UniProt P34995); test: cAMP HTRF agonist assay, EP1; format: cell-based
T2 sequence (P34995 1-402): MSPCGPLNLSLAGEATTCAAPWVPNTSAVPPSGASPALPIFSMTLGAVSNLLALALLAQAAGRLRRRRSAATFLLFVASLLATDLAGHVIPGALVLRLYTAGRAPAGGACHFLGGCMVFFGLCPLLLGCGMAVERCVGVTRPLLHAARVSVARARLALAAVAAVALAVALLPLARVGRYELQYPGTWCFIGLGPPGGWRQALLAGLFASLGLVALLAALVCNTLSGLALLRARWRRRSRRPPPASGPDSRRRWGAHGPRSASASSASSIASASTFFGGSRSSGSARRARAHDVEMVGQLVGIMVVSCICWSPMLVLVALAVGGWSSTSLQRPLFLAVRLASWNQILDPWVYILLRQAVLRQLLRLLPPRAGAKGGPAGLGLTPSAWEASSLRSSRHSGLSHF
Excerpt: Table Sup2: Data with some comparator compounds in functional assays.
Compound DP1 EP1 EP2 EP3v6 EP4
EC50, µµµµM (% I.A) EC50, µµµµM (% I.A) EC50, µµµµM (% I.A) EC50, µµµµM (% I.A) EC50, µµµµM (% I.A)
n = 3 n = 2 n = 8 n = 6 n = 6 […]

95 GPCR profile = test: Wider binding screen (95 GPCR profile, MDS Pharma); conditions: 95 GPCR profile (MDS Pharma Inc.)
Excerpt: [15] 95 GPCR profile (MDS Pharma Inc.).

[1] = terminal half-life after iv 2 mg/kg (5m 2.1)
[2] = total clearance, iv 2 mg/kg (5m 2.1)

Chain of rat IP (P43253 whole entry): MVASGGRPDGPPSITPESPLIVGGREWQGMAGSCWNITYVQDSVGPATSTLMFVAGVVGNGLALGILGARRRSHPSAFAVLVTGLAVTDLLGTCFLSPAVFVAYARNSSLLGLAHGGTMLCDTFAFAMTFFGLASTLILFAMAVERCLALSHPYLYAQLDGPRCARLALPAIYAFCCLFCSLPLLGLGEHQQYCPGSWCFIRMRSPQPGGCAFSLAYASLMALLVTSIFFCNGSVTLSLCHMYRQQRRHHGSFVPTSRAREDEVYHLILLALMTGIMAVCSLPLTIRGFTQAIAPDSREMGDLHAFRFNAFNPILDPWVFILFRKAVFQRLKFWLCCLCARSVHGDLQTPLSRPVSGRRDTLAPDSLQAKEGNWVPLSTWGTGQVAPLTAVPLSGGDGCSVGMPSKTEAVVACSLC
Chain of IP (P43119 whole entry): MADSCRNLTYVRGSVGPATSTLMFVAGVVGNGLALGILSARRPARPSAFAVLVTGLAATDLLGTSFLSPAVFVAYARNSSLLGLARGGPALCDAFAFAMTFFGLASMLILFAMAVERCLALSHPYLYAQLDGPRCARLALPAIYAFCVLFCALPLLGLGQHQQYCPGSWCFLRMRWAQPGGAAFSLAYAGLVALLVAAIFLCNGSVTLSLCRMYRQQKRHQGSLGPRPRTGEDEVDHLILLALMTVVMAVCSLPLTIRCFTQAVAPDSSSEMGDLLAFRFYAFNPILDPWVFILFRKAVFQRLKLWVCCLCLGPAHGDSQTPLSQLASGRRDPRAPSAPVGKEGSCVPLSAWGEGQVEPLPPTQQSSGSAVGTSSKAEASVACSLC
Chain of EP2 (P43116 whole entry): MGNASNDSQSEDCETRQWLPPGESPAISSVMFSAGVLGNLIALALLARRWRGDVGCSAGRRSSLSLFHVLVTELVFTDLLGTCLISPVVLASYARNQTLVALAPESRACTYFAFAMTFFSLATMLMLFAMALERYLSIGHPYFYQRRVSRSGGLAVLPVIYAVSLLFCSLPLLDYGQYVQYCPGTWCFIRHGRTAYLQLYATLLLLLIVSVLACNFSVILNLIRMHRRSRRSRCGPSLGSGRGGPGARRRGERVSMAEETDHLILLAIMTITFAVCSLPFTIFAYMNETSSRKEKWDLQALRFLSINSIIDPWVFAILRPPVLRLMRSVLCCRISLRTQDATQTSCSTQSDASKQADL

| SMILES | Emax (IP; CHO-K1, read-out: hIP % IA) | agonist activity at EP2 (EP2) | pEC50 (EP2; cAMP HTRF agonist assay) | AUC(0-inf) (Rat PK (iv and oral); plasma) | bioavailability (Rat PK (iv and oral); plasma) | Cmax (Rat PK (iv and oral); po 10 mg/kg (5m 10.5)) | Tmax (Rat PK (iv and oral); po 10 mg/kg (5m 10.5)) | unbound Cmax plasma concentration (Rat PK (iv and oral)) | T1/2 (Rat PK (iv and oral); [1]) | Clobs (Rat PK (iv and oral); [2]) | pKi (EP3v6) | pKi (rat IP) | pEC50 (EP1) | off-target liabilities in a wider screen (95 GPCR profile) | further results |
| --- | --- | --- | --- | --- | --- | --- | --- | --- | --- | --- | --- | --- | --- | --- | --- |
| O=C(O)COC[C@H]1CC[C@H](COC(=O)N(c2ccccc2)c2ccc(Cl)cc2)CC1 [5c, Sodium 2-(((1r,4r)-4-(((4-Chlorophenyl)(phenyl)carbamoyloxy)methyl)cyclohexyl)methoxy)acetate] | 85% | no significant agonist activity | < 5.00 | 14600 ng·h/mL | 57% | 3700 ng/mL | 1.5 h | 300 nM | 6.7 h | 0.43 L h^–1 kg^–1 | 6.84 | 7.12 | < 5.00 | no additional off-target liabilities were observed | half-life (Rat PK (iv and oral); CD-1 (mouse), Sprague-Dawley (rat), plasma, oral, rodents, read-out: elimination half-life in rodents): 5 to 8 h; AUC0–inf (Rat PK (iv and oral); iv 2 mg/kg (Table 4)): 5090 ± 1620 ng·h/mL; Clobs (Rat PK (iv and oral); iv 2 mg/kg (Table 4)): 0.427 ± 0.163 L h^–1 kg^–1; T1/2 (Rat PK (iv and oral); iv 2 mg/kg (Table 4)): 6.72 ± 0.98 h; unbound Cmax (Rat PK (iv and oral); oral 10 mg/kg, calculated from the PK experiment): around 100 nM; Cmax (Rat PK (iv and oral); po 10.0 mg/kg (Table 4)): 3700 ± 1340 ng/mL; F (Rat PK (iv and oral); po 10.0 mg/kg (Table 4)): 57.4%; T1/2 (Rat PK (iv and oral); po 10.0 mg/kg (Table 4)): 5.45 ± 1.52 h |
| O=C(O)COC[C@H]1CC[C@H](COC(=O)N(c2ccccc2)c2cccc(F)c2)CC1 [5g, 2-(((1r,4r)-4-(((3-Fluorophenyl)(phenyl)carbamoyloxy)methyl)cyclohexyl)methoxy)acetic Acid] |  | no significant agonist activity |  | 7900 ng·h/mL | 39% | 3400 ng/mL | 0.3 h | 300 nM | 3.4 h | 1.2 L h^–1 kg^–1 | 6.68 | 7.29 |  | no additional off-target liabilities were observed | Emax (IP; CHO-K1; read-out: hIP % IA): 85%; pEC50 (IP; HTRF (cAMP) human IP receptor assay; mean of at least three determinations): 8.06; EP3/IP binding selectivity ratio (EP3v6; human EP3v6 Ki versus human IP Ki): 30- to 50 fold |
| CC#CCC(C)[C@H](O)/C=C/[C@@H]1[C@H]2C/C(=C/CCCC(=O)O)C[C@H]2C[C@H]1O (stereo partly shown) [iloprost] | 101% |  | 6.84 |  |  |  |  |  |  |  | 5.43 | 9.00 | 7.33 |  | EP2 % I.A (EP2; cAMP HTRF agonist assay): 110%; EP1 % I.A (EP1): 48% |
